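The compound was tested at five concentrations on cells cultured in 96-well plates, with a 48-hour exposure period. At the GI50, growth is halved.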 The source made the active and inactive calls. Rule as the data show it: active = GI50 up to about 1.1 µM and inactive = higher.
How the values were obtained:
Experiment in all cases: DTP human tumour cell line panel, 48 h
A549 = system: A549
ACHN = system: ACHN
COLO 205 = system: COLO 205
DU-145 = system: DU-145
HCC 2998 = system: HCC 2998
HCT-116 = system: HCT-116
HCT-15 = system: HCT-15
HL-60 = system: HL-60
K562 = system: K562
MDA-MB-435 = system: MDA-MB-435
MDA-N = system: MDA-N
NCI-H226 = system: NCI-H226
NCI-H522 = system: NCI-H522
OVCAR-4 = system: OVCAR-4
OVCAR-5 = system: OVCAR-5
PC-3 = system: PC-3
SK-MEL-5 = system: SK-MEL-5
SN12C = system: SN12C
SR = system: SR
UO-31 = system: UO-31

| Structure (SMILES) | GI50 (A549) | GI50 (ACHN) | GI50 (COLO 205) | GI50 (DU-145) | GI50 (HCC 2998) | GI50 (HCT-116) | GI50 (HCT-15) [µM] | GI50 (HL-60) | GI50 (K562) | GI50 (MDA-MB-435) | GI50 (MDA-N) | GI50 (NCI-H226) | GI50 (NCI-H522) | GI50 (OVCAR-4) | GI50 (OVCAR-5) | GI50 (PC-3) | GI50 (SK-MEL-5) | GI50 (SN12C) | GI50 (SR) | GI50 (UO-31) |
| --- | --- | --- | --- | --- | --- | --- | --- | --- | --- | --- | --- | --- | --- | --- | --- | --- | --- | --- | --- | --- |
| CC(NC(=O)c1ccc(Cl)c(Cl)c1)c1ccc(-c2ccccc2)cc1 (stereo not given) | 16.4 µM (inactive) | 50.1 µM (inactive) | > 100 µM (inactive) | 18.3 µM (inactive) | 43.1 µM (inactive) | 59.3 µM (inactive) | > 100 | 4.58 µM (inactive) | > 100 µM (inactive) | 69.5 µM (inactive) | > 100 µM (inactive) | 31.3 µM (inactive) | 33.3 µM (inactive) | 16.4 µM (inactive) | 44.9 µM (inactive) | 28.2 µM (inactive) | 75.7 µM (inactive) | 52.2 µM (inactive) | 15.2 µM (inactive) | 14.2 µM (inactive) |
| COc1ccc2nc3cc([N+](=O)[O-])ccc3c(NNc3ccc([N+](=O)[O-])cc3)c2c1 | 7.18 µM (inactive) | 46.9 µM (inactive) | 17.2 µM (inactive) | 47.8 µM (inactive) | 11.1 µM (inactive) | 5.69 µM (inactive) | 55.8 | 20.3 µM (inactive) | 7.19 µM (inactive) | 31.6 µM (inactive) | 30.5 µM (inactive) | 2.36 µM (inactive) | 29.3 µM (inactive) | 57.4 µM (inactive) | 3.91 µM (inactive) | 22.4 µM (inactive) | 19.8 µM (inactive) | 31.5 µM (inactive) | 32.5 µM (inactive) | 24.7 µM (inactive) |
| NS(=O)(=O)c1ccc(NC(=O)N/N=C/c2ccccc2O)cc1 | > 100 µM (inactive) | > 100 µM (inactive) | 35.5 µM (inactive) | > 100 µM (inactive) | 40.7 µM (inactive) | 48.2 µM (inactive) | 48 | 27.2 µM (inactive) | 40.8 µM (inactive) | 16.4 µM (inactive) | 22.1 µM (inactive) | 66.1 µM (inactive) | 22.4 µM (inactive) | > 100 µM (inactive) | > 100 µM (inactive) | > 100 µM (inactive) | 46.3 µM (inactive) | 85.3 µM (inactive) | 22.2 µM (inactive) | 60.7 µM (inactive) |
| CCCNC(=O)CCC(C)[C@H]1CCC2C3C(C[C@H](OC(C)=O)[C@@]21C)[C@@]1(C)CCC2(C[C@H]1C[C@H]3OC(C)=O)OOC1(CCC(C)CC1)OO2 (stereo not given in full) | 2.17 µM (inactive) | 2.14 µM (inactive) | 14.8 µM (inactive) | 9.31 µM (inactive) | 40.1 µM (inactive) | 32.1 µM (inactive) | 35.3 | 13.1 µM (inactive) | 33.2 µM (inactive) | 18.9 µM (inactive) | 14.3 µM (inactive) | 55.3 µM (inactive) | 13 µM (inactive) | 15.8 µM (inactive) | 29.2 µM (inactive) | 19.8 µM (inactive) | 14.6 µM (inactive) | 43.6 µM (inactive) | 9.79 µM (inactive) | 0.959 µM (active) |
| O=C1C(c2cnc3ccccc3n2)=C(O)c2ccccc21 | > 81.8 µM (inactive) | > 86.5 µM (inactive) | 43.2 µM (inactive) | > 100 µM (inactive) | 71.8 µM (inactive) | > 95.7 µM (inactive) | 1.16 | > 60.4 µM (inactive) | > 86.9 µM (inactive) | 4.19 µM (inactive) | > 61.4 µM (inactive) | > 100 µM (inactive) | > 72.9 µM (inactive) | > 53.6 µM (inactive) | > 70.1 µM (inactive) | > 46.6 µM (inactive) | 9.75 µM (inactive) | > 77.3 µM (inactive) | > 59.7 µM (inactive) | > 100 µM (inactive) |
| CC(C)Cn1cnc2c(NCC(C)O)nc3ccccc3c21 (stereo not given) | > 100 µM (inactive) | 41.1 µM (inactive) | 51.1 µM (inactive) | 89.5 µM (inactive) | > 100 µM (inactive) | 42.5 µM (inactive) | 78.3 | 37.5 µM (inactive) | 61.4 µM (inactive) | > 100 µM (inactive) | > 100 µM (inactive) | > 100 µM (inactive) | > 100 µM (inactive) | > 100 µM (inactive) | > 100 µM (inactive) | 87.7 µM (inactive) | 70.6 µM (inactive) | > 100 µM (inactive) | 84.5 µM (inactive) | 38.9 µM (inactive) |
| COc1ccc(N/N=C2\C3=C(CCC(C)(C)O3)C(=O)c3ccccc32)cc1 | 16.6 µM (inactive) | 13.7 µM (inactive) | 22.9 µM (inactive) | 25.2 µM (inactive) | 12.1 µM (inactive) | 14.1 µM (inactive) | 13.7 | 15.3 µM (inactive) | 15.9 µM (inactive) | 17.1 µM (inactive) | 15.6 µM (inactive) | 52.6 µM (inactive) | 17 µM (inactive) | 18.3 µM (inactive) | 19.4 µM (inactive) | 21.9 µM (inactive) | 12.2 µM (inactive) | 17.9 µM (inactive) | 12.6 µM (inactive) | 18.1 µM (inactive) |
| CCN(CC)CCC(=O)c1ccc(Sc2ccc(F)cc2)cc1 | > 100 µM (inactive) | 18.3 µM (inactive) | 21.1 µM (inactive) | 18.9 µM (inactive) | 32.6 µM (inactive) | 18.2 µM (inactive) | 17.3 | 20.1 µM (inactive) | 52.8 µM (inactive) | 14.9 µM (inactive) | 25 µM (inactive) | 16 µM (inactive) | 16.1 µM (inactive) | 20.1 µM (inactive) | 19.7 µM (inactive) | 17.1 µM (inactive) | 17.1 µM (inactive) | 21.7 µM (inactive) | 12.9 µM (inactive) | 17.8 µM (inactive) |
| CCO/C=N/C1=C(C#N)SC2=N/C(=C\c3ccccc3)C(=O)N21 | > 100 µM (inactive) | > 100 µM (inactive) | > 100 µM (inactive) | > 100 µM (inactive) | > 100 µM (inactive) | > 100 µM (inactive) | > 100 | 23.9 µM (inactive) | 41.9 µM (inactive) | > 100 µM (inactive) | > 100 µM (inactive) | 97.3 µM (inactive) | > 100 µM (inactive) | 57.9 µM (inactive) | > 100 µM (inactive) | > 100 µM (inactive) | > 100 µM (inactive) | > 100 µM (inactive) | 39.4 µM (inactive) | > 100 µM (inactive) |
| CC1=C/C(=N\N(C)C)C(C(O)(C(F)(F)F)C(F)(F)F)C(C)(C)C1 (stereo not given) | > 100 µM (inactive) | > 100 µM (inactive) | > 100 µM (inactive) | > 100 µM (inactive) | > 100 µM (inactive) | > 100 µM (inactive) | > 100 | > 100 µM (inactive) | > 100 µM (inactive) | > 100 µM (inactive) | > 100 µM (inactive) | > 100 µM (inactive) | > 100 µM (inactive) | > 100 µM (inactive) | > 100 µM (inactive) | 73.6 µM (inactive) | 80.2 µM (inactive) | > 100 µM (inactive) | > 100 µM (inactive) | > 100 µM (inactive) |
| CC(C)(C)OC(=O)CC(NC(=O)OC(C)(C)C)C(=O)N[C@@H]1CCCC[C@H]1C(=O)OCc1ccccc1 (stereo not given in full) | 25.2 µM (inactive) | 32.7 µM (inactive) | 19.3 µM (inactive) | 32.5 µM (inactive) | 20.6 µM (inactive) | 17.5 µM (inactive) | 14.8 | 24.7 µM (inactive) | 18.4 µM (inactive) | 29.6 µM (inactive) | 32.1 µM (inactive) | 26.4 µM (inactive) | > 10 µM (inactive) | 45.2 µM (inactive) | 26.2 µM (inactive) | 21.4 µM (inactive) | 12.1 µM (inactive) | 18.2 µM (inactive) | 29.2 µM (inactive) | 24.2 µM (inactive) |
| COc1cc(NC(C)c2ccc3c(c2)OCCO3)cc(OC)c1OC (stereo not given) | 45 µM (inactive) | 70 µM (inactive) | 31.3 µM (inactive) | 36.6 µM (inactive) | 23 µM (inactive) | 30.3 µM (inactive) | 24.4 | 18.5 µM (inactive) | 8.97 µM (inactive) | 4.69 µM (inactive) | 5.4 µM (inactive) | 24.3 µM (inactive) | 17.5 µM (inactive) | 68.4 µM (inactive) | 46.6 µM (inactive) | 44.9 µM (inactive) | 18.5 µM (inactive) | 63.2 µM (inactive) | 10.4 µM (inactive) | 56.9 µM (inactive) |
| COc1ccc(-c2c(N)n(-c3cc(OC)cc(OC)c3)c(=O)c3cc([N+](=O)[O-])ccc23)cc1 | > 100 µM (inactive) | > 100 µM (inactive) | > 27.3 µM (inactive) | > 100 µM (inactive) | > 100 µM (inactive) | 21.9 µM (inactive) | > 54.5 | 2.47 µM (inactive) | 23.8 µM (inactive) | 20.4 µM (inactive) | > 50.8 µM (inactive) | > 36.1 µM (inactive) | 5.19 µM (inactive) | 18.2 µM (inactive) | > 100 µM (inactive) | 31.3 µM (inactive) | 18 µM (inactive) | > 100 µM (inactive) | 27.4 µM (inactive) | > 23.3 µM (inactive) |
| Cc1ccnc2nc(-c3cccc4ccccc34)cc(O)c12 | 0.019 µM (active) | 0.0248 µM (active) | 0.0177 µM (active) | 0.035 µM (active) | 0.0573 µM (active) | 0.00542 µM (active) | 0.00434 | 0.000487 µM (active) | 0.000483 µM (active) | 0.0001 µM (active) | 0.000104 µM (active) | 0.0336 µM (active) | 0.00106 µM (active) | 0.115 µM (active) | 0.0516 µM (active) | 0.0113 µM (active) | 0.000991 µM (active) | 0.127 µM (active) | 0.0007 µM (active) | 0.0188 µM (active) |

From ChEMBL document CHEMBL1201862, “PubChem BioAssay data set” (2004)
